{"source": "PubChem BioAssay AID2060892", "about": "(Molecular Pharmacology Branch, DTP, NCI, 2025)", "test_system": "HOP-62 complex spheroids with HUVEC/MSC, viability", "assay": "Anticancer human tumor HOP-62 cell line growth inhibition [RAS];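 as to all read-outs here: spheroids exposed to agents for seven days before readout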;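 as to viability, T/C: 100% = DMSO vehicle control viability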", "settings": "for IC50: curve of first compound; for viability, T/C: stronger effect = lower value", "procedure,_shortened": "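Agents were tested in combination matrices in half-log decrements from a top concentration at or near clinical Cmax (10 microM if undetermined). Targets were multi-cell spheroids of tumour lines plus HUVEC and MSC stromal cells.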", "data": [{"smiles": "C[C@@H](NC(=O)c1ncnc(N)c1Cl)c1ncc(C(=O)Nc2cc(C(F)(F)F)c(Cl)cn2)s1", "note": "+ C#Cc1c(F)ccc2cc(O)cc(-c3ncc4c(N5CC6CCC(C5)N6)nc(OCC56CCCN5CC(F)C6)nc4c3F)c12", "values": [{"measurement": "IC50", "setting": "second compound 0.0316 µM", "value": "> 10000", "unit": "nM"}, {"measurement": "IC50", "setting": "second compound 0.1 µM", "value": "> 10000", "unit": "nM"}, {"measurement": "IC50", "setting": "second compound 0.316 µM", "value": "> 10000", "unit": "nM"}, {"measurement": "IC50", "setting": "second compound 1 µM", "value": "> 10000", "unit": "nM"}, {"measurement": "IC50", "setting": "second compound 3.16 µM", "value": "> 10000", "unit": "nM"}, {"measurement": "IC50", "setting": "second compound 10 µM", "value": 457, "unit": "nM"}, {"measurement": "viability, T/C", "setting": "second compound 0.0316 µM, first compound 0.0316 µM", "value": 109, "unit": "%"}, {"measurement": "viability, T/C", "setting": "second compound 0.0316 µM, first compound 0.1 µM", "value": 105, "unit": "%"}, {"measurement": "viability, T/C", "setting": "second compound 0.0316 µM, first compound 0.316 µM", "value": 101, "unit": "%"}, {"measurement": "viability, T/C", "setting": "second compound 0.0316 µM, first compound 1 µM", "value": 102, "unit": "%"}, {"measurement": "viability, T/C", "setting": "second compound 0.0316 µM, first compound 3.16 µM", "value": 92.6, "unit": "%"}, {"measurement": "viability, T/C", "setting": "second compound 0.0316 µM, first compound 10 µM", "value": 78.6, "unit": "%"}, {"measurement": "viability, T/C", "setting": "second compound 0.1 µM, first compound 0.0316 µM", "value": 110, "unit": "%"}, {"measurement": "viability, T/C", "setting": "second compound 0.1 µM, first compound 0.1 µM", "value": 113, "unit": "%"}, {"measurement": "viability, T/C", "setting": "second compound 0.1 µM, first compound 0.316 µM", "value": 105, "unit": "%"}, {"measurement": "viability, T/C", "setting": "second compound 0.1 µM, first compound 1 µM", "value": 102, "unit": "%"}, {"measurement": "viability, T/C", "setting": "second compound 0.1 µM, first compound 3.16 µM", "value": 96.8, "unit": "%"}, {"measurement": "viability, T/C", "setting": "second compound 0.1 µM, first compound 10 µM", "value": 75.4, "unit": "%"}, {"measurement": "viability, T/C", "setting": "second compound 0.316 µM, first compound 0.0316 µM", "value": 114, "unit": "%"}, {"measurement": "viability, T/C", "setting": "second compound 0.316 µM, first compound 0.1 µM", "value": 101, "unit": "%"}, {"measurement": "viability, T/C", "setting": "second compound 0.316 µM, first compound 0.316 µM", "value": 96.6, "unit": "%"}, {"measurement": "viability, T/C", "setting": "second compound 0.316 µM, first compound 1 µM", "value": 104, "unit": "%"}, {"measurement": "viability, T/C", "setting": "second compound 0.316 µM, first compound 3.16 µM", "value": 97.6, "unit": "%"}, {"measurement": "viability, T/C", "setting": "second compound 0.316 µM, first compound 10 µM", "value": 62.8, "unit": "%"}, {"measurement": "viability, T/C", "setting": "second compound 1 µM, first compound 0.0316 µM", "value": 117, "unit": "%"}, {"measurement": "viability, T/C", "setting": "second compound 1 µM, first compound 0.1 µM", "value": 97.9, "unit": "%"}, {"measurement": "viability, T/C", "setting": "second compound 1 µM, first compound 0.316 µM", "value": 91.1, "unit": "%"}, {"measurement": "viability, T/C", "setting": "second compound 1 µM, first compound 1 µM", "value": 94.1, "unit": "%"}, {"measurement": "viability, T/C", "setting": "second compound 1 µM, first compound 3.16 µM", "value": 88.6, "unit": "%"}, {"measurement": "viability, T/C", "setting": "second compound 1 µM, first compound 10 µM", "value": 65.4, "unit": "%"}, {"measurement": "viability, T/C", "setting": "second compound 3.16 µM, first compound 0.0316 µM", "value": 83.2, "unit": "%"}, {"measurement": "viability, T/C", "setting": "second compound 3.16 µM, first compound 0.1 µM", "value": 78.7, "unit": "%"}, {"measurement": "viability, T/C", "setting": "second compound 3.16 µM, first compound 0.316 µM", "value": 77.1, "unit": "%"}, {"measurement": "viability, T/C", "setting": "second compound 3.16 µM, first compound 1 µM", "value": 77.4, "unit": "%"}, {"measurement": "viability, T/C", "setting": "second compound 3.16 µM, first compound 3.16 µM", "value": 73.4, "unit": "%"}, {"measurement": "viability, T/C", "setting": "second compound 3.16 µM, first compound 10 µM", "value": 58.4, "unit": "%"}, {"measurement": "viability, T/C", "setting": "second compound 10 µM, first compound 0.0316 µM", "value": 51.9, "unit": "%"}, {"measurement": "viability, T/C", "setting": "second compound 10 µM, first compound 0.1 µM", "value": 46.8, "unit": "%"}, {"measurement": "viability, T/C", "setting": "second compound 10 µM, first compound 0.316 µM", "value": 54.1, "unit": "%"}, {"measurement": "viability, T/C", "setting": "second compound 10 µM, first compound 1 µM", "value": 49.9, "unit": "%"}, {"measurement": "viability, T/C", "setting": "second compound 10 µM, first compound 3.16 µM", "value": 43.4, "unit": "%"}, {"measurement": "viability, T/C", "setting": "second compound 10 µM, first compound 10 µM", "value": 33.7, "unit": "%"}]}, {"smiles": "O=C(c1ccc(F)c(F)c1Nc1ccc(I)cc1F)N1CC(O)([C@@H]2CCCCN2)C1", "note": "+ CCn1c(-c2cccnc2C(C)OC)c2c3cc(ccc31)N1CCOC(CC(NC(=O)C(C(C)C)N(C)C(=O)C3(F)CCN(C(=O)C#CC(C)(C)N(C)C)CC3)C(=O)N3CCCC(N3)C(=O)OCC(C)(C)C2)C1", "values": [{"measurement": "IC50", "setting": "second compound 0.000949 µM", "value": 378, "unit": "nM"}, {"measurement": "IC50", "setting": "second compound 0.003 µM", "value": 881, "unit": "nM"}, {"measurement": "IC50", "setting": "second compound 0.00949 µM", "value": 167, "unit": "nM"}, {"measurement": "IC50", "setting": "second compound 0.03 µM", "value": 135, "unit": "nM"}, {"measurement": "IC50", "setting": "second compound 0.0949 µM", "value": 114, "unit": "nM"}, {"measurement": "IC50", "setting": "second compound 0.3 µM", "value": 71.4, "unit": "nM"}, {"measurement": "viability, T/C", "setting": "second compound 0.000949 µM, first compound 0.00316 µM", "value": 107, "unit": "%"}, {"measurement": "viability, T/C", "setting": "second compound 0.000949 µM, first compound 0.01 µM", "value": 123, "unit": "%"}, {"measurement": "viability, T/C", "setting": "second compound 0.000949 µM, first compound 0.0316 µM", "value": 82, "unit": "%"}, {"measurement": "viability, T/C", "setting": "second compound 0.000949 µM, first compound 0.1 µM", "value": 87.2, "unit": "%"}, {"measurement": "viability, T/C", "setting": "second compound 0.000949 µM, first compound 0.316 µM", "value": 52.4, "unit": "%"}, {"measurement": "viability, T/C", "setting": "second compound 0.000949 µM, first compound 1 µM", "value": 25.6, "unit": "%"}, {"measurement": "viability, T/C", "setting": "second compound 0.003 µM, first compound 0.00316 µM", "value": 106, "unit": "%"}, {"measurement": "viability, T/C", "setting": "second compound 0.003 µM, first compound 0.01 µM", "value": 93.9, "unit": "%"}, {"measurement": "viability, T/C", "setting": "second compound 0.003 µM, first compound 0.0316 µM", "value": 90.3, "unit": "%"}, {"measurement": "viability, T/C", "setting": "second compound 0.003 µM, first compound 0.1 µM", "value": 110, "unit": "%"}, {"measurement": "viability, T/C", "setting": "second compound 0.003 µM, first compound 0.316 µM", "value": 74.9, "unit": "%"}, {"measurement": "viability, T/C", "setting": "second compound 0.003 µM, first compound 1 µM", "value": 46.9, "unit": "%"}, {"measurement": "viability, T/C", "setting": "second compound 0.00949 µM, first compound 0.00316 µM", "value": 85.6, "unit": "%"}, {"measurement": "viability, T/C", "setting": "second compound 0.00949 µM, first compound 0.01 µM", "value": 75.6, "unit": "%"}, {"measurement": "viability, T/C", "setting": "second compound 0.00949 µM, first compound 0.0316 µM", "value": 78.3, "unit": "%"}, {"measurement": "viability, T/C", "setting": "second compound 0.00949 µM, first compound 0.1 µM", "value": 60.6, "unit": "%"}, {"measurement": "viability, T/C", "setting": "second compound 0.00949 µM, first compound 0.316 µM", "value": 36.7, "unit": "%"}, {"measurement": "viability, T/C", "setting": "second compound 0.00949 µM, first compound 1 µM", "value": 30.9, "unit": "%"}, {"measurement": "viability, T/C", "setting": "second compound 0.03 µM, first compound 0.00316 µM", "value": 88.8, "unit": "%"}, {"measurement": "viability, T/C", "setting": "second compound 0.03 µM, first compound 0.01 µM", "value": 85.8, "unit": "%"}, {"measurement": "viability, T/C", "setting": "second compound 0.03 µM, first compound 0.0316 µM", "value": 71.8, "unit": "%"}, {"measurement": "viability, T/C", "setting": "second compound 0.03 µM, first compound 0.1 µM", "value": 60.9, "unit": "%"}, {"measurement": "viability, T/C", "setting": "second compound 0.03 µM, first compound 0.316 µM", "value": 28.4, "unit": "%"}, {"measurement": "viability, T/C", "setting": "second compound 0.03 µM, first compound 1 µM", "value": 32.6, "unit": "%"}, {"measurement": "viability, T/C", "setting": "second compound 0.0949 µM, first compound 0.00316 µM", "value": 87.6, "unit": "%"}, {"measurement": "viability, T/C", "setting": "second compound 0.0949 µM, first compound 0.01 µM", "value": 78.2, "unit": "%"}, {"measurement": "viability, T/C", "setting": "second compound 0.0949 µM, first compound 0.0316 µM", "value": 72.2, "unit": "%"}, {"measurement": "viability, T/C", "setting": "second compound 0.0949 µM, first compound 0.1 µM", "value": 55.8, "unit": "%"}, {"measurement": "viability, T/C", "setting": "second compound 0.0949 µM, first compound 0.316 µM", "value": 27.1, "unit": "%"}, {"measurement": "viability, T/C", "setting": "second compound 0.0949 µM, first compound 1 µM", "value": 26.6, "unit": "%"}, {"measurement": "viability, T/C", "setting": "second compound 0.3 µM, first compound 0.00316 µM", "value": 82.9, "unit": "%"}, {"measurement": "viability, T/C", "setting": "second compound 0.3 µM, first compound 0.01 µM", "value": 70, "unit": "%"}, {"measurement": "viability, T/C", "setting": "second compound 0.3 µM, first compound 0.0316 µM", "value": 67.3, "unit": "%"}, {"measurement": "viability, T/C", "setting": "second compound 0.3 µM, first compound 0.1 µM", "value": 42.4, "unit": "%"}, {"measurement": "viability, T/C", "setting": "second compound 0.3 µM, first compound 0.316 µM", "value": 31.4, "unit": "%"}, {"measurement": "viability, T/C", "setting": "second compound 0.3 µM, first compound 1 µM", "value": 26.1, "unit": "%"}]}]}
